These results are taken from publication PMC7811140 (iScience, 2020).

SMILES strings stand for the structures. “Also recorded” adds a separate entry of the source.

For experiment [1], the target named is T1, KDM4B (Homo sapiens, UniProt O94953).
T1 sequence (O94953 1-1096): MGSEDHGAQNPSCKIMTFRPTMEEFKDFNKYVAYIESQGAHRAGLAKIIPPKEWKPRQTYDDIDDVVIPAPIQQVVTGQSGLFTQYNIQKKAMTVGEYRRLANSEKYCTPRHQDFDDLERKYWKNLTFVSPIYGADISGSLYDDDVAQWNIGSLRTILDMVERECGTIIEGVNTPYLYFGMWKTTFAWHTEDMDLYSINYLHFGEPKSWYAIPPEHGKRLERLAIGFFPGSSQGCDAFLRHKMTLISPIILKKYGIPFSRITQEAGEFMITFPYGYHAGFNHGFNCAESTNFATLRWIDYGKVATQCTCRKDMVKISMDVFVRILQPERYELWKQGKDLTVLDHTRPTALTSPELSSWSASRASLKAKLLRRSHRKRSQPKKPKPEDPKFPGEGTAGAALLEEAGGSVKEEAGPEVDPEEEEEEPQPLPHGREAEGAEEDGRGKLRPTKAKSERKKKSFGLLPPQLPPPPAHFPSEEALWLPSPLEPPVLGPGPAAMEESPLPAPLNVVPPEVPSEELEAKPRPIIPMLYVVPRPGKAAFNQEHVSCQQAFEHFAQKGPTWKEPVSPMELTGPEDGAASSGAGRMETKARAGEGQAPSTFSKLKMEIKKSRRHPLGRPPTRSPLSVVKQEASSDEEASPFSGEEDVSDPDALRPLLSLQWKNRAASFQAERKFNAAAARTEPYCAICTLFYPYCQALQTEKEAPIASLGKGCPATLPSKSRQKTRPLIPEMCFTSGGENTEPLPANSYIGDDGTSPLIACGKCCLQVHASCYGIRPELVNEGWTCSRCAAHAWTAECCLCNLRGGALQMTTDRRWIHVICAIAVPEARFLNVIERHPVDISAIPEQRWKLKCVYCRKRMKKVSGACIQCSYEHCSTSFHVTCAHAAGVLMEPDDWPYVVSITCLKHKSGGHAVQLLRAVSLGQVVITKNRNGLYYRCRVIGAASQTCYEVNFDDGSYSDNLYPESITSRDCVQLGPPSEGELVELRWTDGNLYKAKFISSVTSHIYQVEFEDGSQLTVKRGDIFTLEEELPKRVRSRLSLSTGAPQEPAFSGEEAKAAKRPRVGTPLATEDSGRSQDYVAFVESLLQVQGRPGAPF
Kind of experiment: Western blot of histone marks in 293T cells expressing KDM4B. In kind it is cell-based. To be noted: treated 24 hours. For orientation: A western blot detects proteins with antibodies after separation by electrophoresis.

The target in experiment [2] is T2, KDM4B (Homo sapiens, UniProt O94953).
T2 sequence (O94953 1-348): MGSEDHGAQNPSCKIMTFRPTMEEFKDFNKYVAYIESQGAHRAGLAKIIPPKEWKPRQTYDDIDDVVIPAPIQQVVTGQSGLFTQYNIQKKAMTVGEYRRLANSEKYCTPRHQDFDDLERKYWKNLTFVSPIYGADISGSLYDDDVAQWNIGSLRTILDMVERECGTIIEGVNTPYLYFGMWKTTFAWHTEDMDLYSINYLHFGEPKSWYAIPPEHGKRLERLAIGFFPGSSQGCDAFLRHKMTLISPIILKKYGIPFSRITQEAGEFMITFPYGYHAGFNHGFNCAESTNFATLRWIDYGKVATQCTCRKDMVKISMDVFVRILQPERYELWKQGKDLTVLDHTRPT
In words: biochemical. Conditions: for inhibition at 15 µM: read-out: %Inhibition of KDM4B; for %Inhibition of KDM4B: at 15 μM, screening; for KDM4B inhibitory activity (in words): Figure S2.

The subject of experiment [3] is Rh30 cells. Kind of experiment: Crystal violet staining proliferation assay. To be noted: 5 days, at the concentrations that hit the targets. It is filed as cell-based.
The target of experiment [4] is T3, KDM4C (Homo sapiens, UniProt Q9H3R0).
T3 sequence (Q9H3R0 1-1056): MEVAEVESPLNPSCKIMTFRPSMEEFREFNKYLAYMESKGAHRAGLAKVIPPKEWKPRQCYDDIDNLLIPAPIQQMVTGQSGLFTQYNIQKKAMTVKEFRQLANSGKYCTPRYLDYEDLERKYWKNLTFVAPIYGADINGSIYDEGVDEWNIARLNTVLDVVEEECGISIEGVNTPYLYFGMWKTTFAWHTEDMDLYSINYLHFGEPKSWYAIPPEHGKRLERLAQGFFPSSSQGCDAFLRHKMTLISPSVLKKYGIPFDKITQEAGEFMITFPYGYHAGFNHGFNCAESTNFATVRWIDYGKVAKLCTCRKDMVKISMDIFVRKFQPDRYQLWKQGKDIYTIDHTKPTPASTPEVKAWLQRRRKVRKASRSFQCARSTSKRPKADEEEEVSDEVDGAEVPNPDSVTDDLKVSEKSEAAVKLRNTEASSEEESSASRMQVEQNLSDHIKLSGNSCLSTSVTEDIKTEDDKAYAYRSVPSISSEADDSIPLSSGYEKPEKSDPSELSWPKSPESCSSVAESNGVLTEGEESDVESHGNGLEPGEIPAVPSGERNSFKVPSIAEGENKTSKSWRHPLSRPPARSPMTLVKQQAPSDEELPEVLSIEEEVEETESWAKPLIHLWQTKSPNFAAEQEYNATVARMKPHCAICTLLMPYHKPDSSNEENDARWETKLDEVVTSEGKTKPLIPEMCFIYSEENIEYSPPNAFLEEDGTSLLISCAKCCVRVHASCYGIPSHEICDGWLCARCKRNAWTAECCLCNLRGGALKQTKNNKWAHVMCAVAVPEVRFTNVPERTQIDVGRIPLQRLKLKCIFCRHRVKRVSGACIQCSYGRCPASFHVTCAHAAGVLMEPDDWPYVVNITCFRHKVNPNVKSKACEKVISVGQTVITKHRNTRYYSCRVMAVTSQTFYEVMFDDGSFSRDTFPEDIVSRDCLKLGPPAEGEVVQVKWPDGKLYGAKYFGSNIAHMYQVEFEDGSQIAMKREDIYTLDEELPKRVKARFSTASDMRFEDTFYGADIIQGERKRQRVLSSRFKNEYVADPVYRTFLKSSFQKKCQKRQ
In words: ALPHA Screen demethylation assay. Conditions: IC50 (μM) KDM4C. In kind it is biochemical.

For experiment [5], the target named is KDM5A (Homo sapiens, UniProt P29375). In words: ALPHA Screen demethylation assay. In kind it is biochemical. Conditions: IC50 (μM) KDM5A.
KDM5A, sequence (P29375 whole entry): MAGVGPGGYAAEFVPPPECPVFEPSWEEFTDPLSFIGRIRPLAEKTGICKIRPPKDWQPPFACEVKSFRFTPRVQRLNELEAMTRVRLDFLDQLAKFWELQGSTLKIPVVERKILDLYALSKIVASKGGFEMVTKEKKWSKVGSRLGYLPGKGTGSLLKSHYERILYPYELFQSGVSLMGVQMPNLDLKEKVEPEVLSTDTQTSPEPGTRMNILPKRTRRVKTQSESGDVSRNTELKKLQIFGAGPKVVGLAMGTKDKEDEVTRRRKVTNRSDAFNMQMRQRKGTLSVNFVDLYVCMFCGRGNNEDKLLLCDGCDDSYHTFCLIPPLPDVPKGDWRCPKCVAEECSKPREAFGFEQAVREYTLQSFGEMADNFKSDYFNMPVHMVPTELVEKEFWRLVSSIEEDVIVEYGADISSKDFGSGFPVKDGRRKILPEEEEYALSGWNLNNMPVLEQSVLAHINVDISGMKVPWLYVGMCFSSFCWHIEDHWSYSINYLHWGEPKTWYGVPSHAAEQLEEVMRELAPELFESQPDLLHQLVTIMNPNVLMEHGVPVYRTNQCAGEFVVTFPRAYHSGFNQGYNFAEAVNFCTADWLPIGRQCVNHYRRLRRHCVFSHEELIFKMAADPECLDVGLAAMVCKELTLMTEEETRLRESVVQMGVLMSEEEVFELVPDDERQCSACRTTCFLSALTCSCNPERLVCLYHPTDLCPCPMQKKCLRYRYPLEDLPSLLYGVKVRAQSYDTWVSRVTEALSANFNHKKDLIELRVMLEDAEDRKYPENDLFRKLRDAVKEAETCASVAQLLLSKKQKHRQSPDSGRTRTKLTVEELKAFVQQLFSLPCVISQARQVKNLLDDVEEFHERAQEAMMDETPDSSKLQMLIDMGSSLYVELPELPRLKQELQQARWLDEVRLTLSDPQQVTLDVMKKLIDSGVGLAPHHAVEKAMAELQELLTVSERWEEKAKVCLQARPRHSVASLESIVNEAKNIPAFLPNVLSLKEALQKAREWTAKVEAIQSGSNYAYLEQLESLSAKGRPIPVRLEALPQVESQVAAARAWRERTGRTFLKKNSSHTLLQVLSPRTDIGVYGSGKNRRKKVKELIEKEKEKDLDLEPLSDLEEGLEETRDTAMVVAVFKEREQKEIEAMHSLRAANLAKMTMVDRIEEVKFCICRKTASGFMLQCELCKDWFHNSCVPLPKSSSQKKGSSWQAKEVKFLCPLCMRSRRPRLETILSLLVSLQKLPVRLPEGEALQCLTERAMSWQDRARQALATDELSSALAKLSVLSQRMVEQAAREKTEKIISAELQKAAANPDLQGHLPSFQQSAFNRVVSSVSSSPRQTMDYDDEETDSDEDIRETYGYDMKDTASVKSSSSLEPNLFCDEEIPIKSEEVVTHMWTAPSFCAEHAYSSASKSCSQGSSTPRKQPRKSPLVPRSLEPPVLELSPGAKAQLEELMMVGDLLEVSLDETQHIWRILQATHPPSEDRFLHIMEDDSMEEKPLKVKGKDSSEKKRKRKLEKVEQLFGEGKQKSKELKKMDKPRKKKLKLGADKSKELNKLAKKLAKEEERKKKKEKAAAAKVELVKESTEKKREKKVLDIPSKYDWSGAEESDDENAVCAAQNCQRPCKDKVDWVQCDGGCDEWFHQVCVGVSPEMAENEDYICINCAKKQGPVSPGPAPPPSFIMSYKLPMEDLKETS
Experiment [6] concerns PAX3-FOXO1. In words: Western blot of PAX3-FOXO1 in Rh30 cells. It is filed as cell-based. Conditions: 24 hr.
For experiment [7], the system named is KDM4 substrates H3K9me3 and H3K36me3. Kind of experiment: Western blot of H3K9me3 and H3K36me3 in Rh30 cells. In kind it is cell-based. To be noted: 24 hr.
The subject of experiment [8] is H3K9me3 and H3K36me3 peaks. Kind of experiment: ChIP-seq of H3K9me3 and H3K36me3 in Rh30 cells. It is filed as cell-based, human. To be noted: 1μM, 24 hr.
In experiment [9] the target is T1, KDM4B. In words: Western blot of histone methyl marks in U2OS cells expressing KDM4B. To be noted: 1uM, not on H3K4me3.
Experiment [10] deals with aRMS xenograft. Conditions: ref Kang et al., 2012; Lock et al., 2013; cited from earlier work.
Experiment [11] deals with eRMS xenograft. Conditions: ref Kang et al., 2012; Lock et al., 2013; cited from earlier work.

As for `Cc1cc(C2CCCCC2)n(O)c(=O)c1` [ciclopirox], the “KDM4B activity in demethylating H3K9me3” value in experiment [1] is “greatly inhibited KDM4B activity”.
For `CN(NC(=O)CC(=O)NN(C)C(=S)c1ccccc1)C(=S)c1ccccc1` [STA-4783], the inhibition (in general, the share of the control response that was lost under treatment) at 15 µM in experiment [2] was < 15%.
`CC1(C)CC(=O)c2c(C(F)(F)F)nn(-c3ccc(C(N)=O)c(N[C@H]4CC[C@H](OC(=O)CN)CC4)c3)c2C1` [SNX-5422]: the inhibition at 15 µM in [2] is < 15%.
Take `CCc1c(O)cc(O)c(C(=O)c2ccc(OCCN3CCOCC3)c(OC)c2)c1CC(=O)N(CCOC)CCOC.Cl` [KW2478]: the “%Inhibition of KDM4B” value in experiment [2] is on record as < 15%.
Consider `CCOC(=O)c1ccnc(CNCC(=O)N(CC)CCN(C)C)c1` [KDM5-C70], for which the anti-proliferative effect result in experiment [3] was “no anti-proliferative effect”.
As to `CC[C@@H](C)Nc1cc(C(=O)N[C@H]2C[C@H]3CC[C@@H](C2)N3c2ccc(C(=O)C3CC3)cn2)c(C)cc1C(N)=O` [XL888], in experiment [2], the “%Inhibition of KDM4B” value is < 15%.
`COC1=C2C[C@@H](C)C[C@H](OC)[C@H](O)[C@@H](C)/C=C(\C)[C@H](OC(N)=O)[C@@H](OC)/C=C\C=C(/C)C(=O)NC(=CC1=O)C2=O` [geldanamycin]: in experiment [4], the IC50 – broadly, the point on the concentration scale where inhibition reaches its midpoint – is < 1 µM. Besides, in experiment [5], the IC50 is < 1 µM. Moreover, the “KDM4B activity in demethylating H3K9me3” value in experiment [1] is listed as “greatly inhibited KDM4B activity”. Further, the “PAX3-FOXO1 expression (protein)” value in experiment [6] is on record as “reduced”. For the same compound, the “H3K9me3 and H3K36me3 levels” value in [7] was “induced an increase of H3K9me3 and H3K36me3”. In [8], this compound gave an H3K36me3 peaks decreased of 213 peaks and an H3K36me3 peaks increased of 1430 peaks. Moreover, the “peaks of H3K9me3 induced” value in [8] (p < 0.05, logFC = 0.5) was “Four thousand four hundred six”. Also, the “KDM4B catalytic activity on its H3K9me3 and H3K36me3 substrates” value in experiment [9] is reported as “blocked KDM4B catalytic activity”.
Regarding `CC(C)c1cc(C(=O)N2Cc3ccc(CN4CCN(C)CC4)cc3C2)c(O)cc1O` [AT13387], in [2], the “KDM4B inhibitory activity (in words)” value is given as “minimal effect on KDM4B activity; also recorded: did not inhibit KDM4B activity” and the inhibition at 15 µM is < 15%. The “PAX3-FOXO1 expression (protein)” value in [6] was “reduced the expression of PAX3-FOXO1”. In experiment [10], the aRMS xenograft growth result was “no effect”. In addition, in experiment [11], the eRMS xenograft growth entry is “no effect on either aRMS or eRMS xenograft growth”.
In the case of `CC(C)c1cc(-c2n[nH]c(=O)n2-c2ccc3c(ccn3C)c2)c(O)cc1O` [Ganetespib], in [2], the “KDM4B inhibitory activity (in words)” value is reported as “did not inhibit KDM4B activity” and the inhibition at 15 µM is < 15%. In addition, in experiment [10], the aRMS xenograft growth result is reported as “no effect”. In [11], the eRMS xenograft growth result is “no effect on either aRMS or eRMS xenograft growth”.
For the compound `CCNC(=O)c1noc(-c2cc(C(C)C)c(O)cc2O)c1-c1ccc(CN2CCOCC2)cc1` [NVP-AUY922], the inhibition at 15 µM in experiment [2] was < 15%.
`CCOC(=O)CCNc1cc(N2CCc3ccccc3CC2)nc(-c2ccccn2)n1` [GSK-J4]: the anti-proliferative effect entry in experiment [3] was “no anti-proliferative effect”.
